Some test systems named below: HS 578T breast; HCT-116 colon; UACC-257 melanoma; 786-0 renal; IGROV1 ovarian; MCF7 breast; HOP-62 NSCLC; COLO 205 colon; M14 melanoma; BT-549 breast; HOP-92 NSCLC; TK-10 renal; SK-MEL-5 melanoma.
What all share (assay): inhibition of tumour cell growth, NCI panel, 48 h

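Grown in 96-well plates, cells were treated for 48 hours with each compound at five concentrations. Insufficient inhibition: endpoint recorded as highest concentration tested. The concentration for full growth arrest is given as TGI.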

With `O=C1Nc2cccc(Cl)c2/C1=C\c1c(Cl)nc2n1CCS2`, the TGI in the assay with HS 578T breast, with HCT-116 colon, in the assay on UACC-257 melanoma, in the assay on 786-0 renal, in the assay with IGROV1 ovarian and in the assay on MCF7 breast was greater than 100 µM in each case. Also, the TGI in the assay with HOP-62 NSCLC, with COLO 205 colon, in the assay on M14 melanoma, in the assay on BT-549 breast, with HOP-92 NSCLC and in the assay on TK-10 renal was greater than 100 µM throughout. This compound also showed a TGI with SK-MEL-5 melanoma greater than 100 µM.
Consider `CN(CCSCCN(C)C(=O)OC(C)(C)C)C(=O)OC(C)(C)C`, for which the TGI with HS 578T breast, in the assay on HCT-116 colon, in the assay on UACC-257 melanoma, with 786-0 renal, with IGROV1 ovarian and in the assay with MCF7 breast was greater than 100 µM throughout. Moreover, the TGI in the assay on HOP-62 NSCLC, in the assay with COLO 205 colon, with M14 melanoma, with BT-549 breast, in the assay with HOP-92 NSCLC and in the assay on TK-10 renal was greater than 100 µM throughout. In the assay with SK-MEL-5 melanoma, the TGI was greater than 100 µM.
Regarding `CC(C)(C)OC(=O)NC1CCCCC1NC(=O)C(=O)NC1CCCCC1NC(=O)OC(C)(C)C` (configuration not stated), the TGI is 57.1 µM in the assay with HS 578T breast; greater than 100 µM in the assay with HCT-116 colon; greater than 100 µM with UACC-257 melanoma; greater than 100 µM in the assay on 786-0 renal; greater than 100 µM in the assay with IGROV1 ovarian; greater than 100 µM with MCF7 breast. Moreover, the TGI with HOP-62 NSCLC was 80.6 µM; in the assay with COLO 205 colon, greater than 100 µM; in the assay with M14 melanoma, greater than 100 µM; in the assay with BT-549 breast, greater than 100 µM; in the assay on HOP-92 NSCLC, 45 µM; in the assay on TK-10 renal, greater than 100 µM. For the same compound, the TGI in the assay on SK-MEL-5 melanoma is greater than 100 µM.
As for `COC(=O)C1=C(C(=O)OC)N(c2ccc(OC)cc2[N+](=O)[O-])C(c2ccc(C)cc2)=CC1c1ccc(OC)cc1OC` (configuration not stated), the TGI with HS 578T breast was 79.5 µM; with HCT-116 colon, greater than 100 µM; in the assay with UACC-257 melanoma it was greater than 100 µM; in the assay on 786-0 renal, greater than 94 µM; with IGROV1 ovarian, 56.8 µM; with MCF7 breast, greater than 100 µM. In addition, the TGI was greater than 72.7 µM in the assay with HOP-62 NSCLC; 20.8 µM in the assay on COLO 205 colon; greater than 100 µM with M14 melanoma; greater than 100 µM in the assay on BT-549 breast; greater than 100 µM in the assay with HOP-92 NSCLC; greater than 100 µM in the assay with TK-10 renal. In addition, in the assay on SK-MEL-5 melanoma, the TGI was greater than 100 µM.
As for `CC1(C)C(C#N)C1C1=C(N2CCOCC2)[C@]2(C)C(OC(=O)c3ccccc3)CC[C@@H]2C1` (some centres not stated), the TGI with HS 578T breast, in the assay with HCT-116 colon, with UACC-257 melanoma, in the assay with 786-0 renal, in the assay with IGROV1 ovarian and in the assay with MCF7 breast was greater than 100 µM throughout. Also, the TGI in the assay on HOP-62 NSCLC, in the assay on COLO 205 colon, in the assay on M14 melanoma, with BT-549 breast, with HOP-92 NSCLC and with TK-10 renal was greater than 100 µM throughout. Moreover, the TGI in the assay with SK-MEL-5 melanoma was greater than 100 µM.
Consider `COC(=O)c1ccc(/C=C/c2cc(O)ccc2O)cc1`, for which the TGI with HS 578T breast was greater than 100 µM; with HCT-116 colon it was 18.9 µM; in the assay on UACC-257 melanoma, 22.5 µM; with 786-0 renal, 16.9 µM; in the assay on IGROV1 ovarian, 9.42 µM; in the assay on MCF7 breast, 21.8 µM. Also, the TGI is greater than 69.3 µM in the assay on HOP-62 NSCLC; 22.8 µM in the assay on COLO 205 colon; 43 µM in the assay with M14 melanoma; 3.49 µM in the assay on BT-549 breast; 7.69 µM with HOP-92 NSCLC; 45.3 µM in the assay on TK-10 renal. Besides, the TGI with SK-MEL-5 melanoma was greater than 25.5 µM.
Turning to `O=[N+]([O-])C[C@@]12O[C@]3(O)C4C5CC(C6C5C3C61)C42` (some centres not stated), the TGI with HS 578T breast, in the assay with HCT-116 colon, with UACC-257 melanoma, with 786-0 renal, in the assay on IGROV1 ovarian and with MCF7 breast was greater than 100 µM throughout. Also, the TGI with HOP-62 NSCLC, in the assay with COLO 205 colon, in the assay on M14 melanoma, in the assay with BT-549 breast, with HOP-92 NSCLC and with TK-10 renal was greater than 100 µM each time. Further, in the assay with SK-MEL-5 melanoma, the TGI was greater than 100 µM.
For the compound `O=c1oc2ccc3ccccc3c2cc1-c1nc2ccccc2s1`, the TGI with HS 578T breast was greater than 100 µM; with HCT-116 colon, greater than 100 µM; with UACC-257 melanoma, greater than 100 µM; in the assay on 786-0 renal, greater than 100 µM; in the assay with IGROV1 ovarian it was greater than 100 µM; in the assay with MCF7 breast it was greater than 24.4 µM. The TGI in the assay with HOP-62 NSCLC, in the assay on COLO 205 colon, in the assay with M14 melanoma, in the assay on BT-549 breast, with HOP-92 NSCLC and in the assay with TK-10 renal was greater than 100 µM throughout. Moreover, the TGI in the assay on SK-MEL-5 melanoma is greater than 100 µM.
In the case of `Fc1ccc2c(c1)nc1n2C(c2c(Cl)cccc2Cl)SC1` (configuration not stated), the TGI was 34.7 µM in the assay with HS 578T breast; 18.3 µM in the assay with HCT-116 colon; 34.3 µM with UACC-257 melanoma; 29.5 µM in the assay on 786-0 renal; 27.1 µM in the assay on IGROV1 ovarian; 32.2 µM with MCF7 breast. The TGI in the assay with HOP-62 NSCLC came to 29.2 µM; in the assay on COLO 205 colon it was 32.9 µM; with M14 melanoma, 29.9 µM; in the assay on BT-549 breast, 30.5 µM; with HOP-92 NSCLC it was 20 µM; in the assay with TK-10 renal, 31.6 µM. In the assay on SK-MEL-5 melanoma, this compound came in with a TGI of 21.1 µM.
Regarding `O=C1C2SC34c5c2c2ccccc2n5CCC3CCCN14` (configuration not stated), the TGI in the assay with HS 578T breast is greater than 100 µM; in the assay on HCT-116 colon, greater than 100 µM; in the assay on UACC-257 melanoma, 95.5 µM; in the assay with 786-0 renal it was greater than 100 µM; with IGROV1 ovarian it was greater than 100 µM; in the assay on MCF7 breast, greater than 100 µM. Moreover, the TGI in the assay on HOP-62 NSCLC was greater than 100 µM; in the assay with COLO 205 colon, greater than 100 µM; in the assay with M14 melanoma it was greater than 100 µM; with BT-549 breast, greater than 100 µM; in the assay on HOP-92 NSCLC, greater than 100 µM; with TK-10 renal, 87 µM. Further, in the assay on SK-MEL-5 melanoma, the TGI was greater than 100 µM.
Turning to `COc1cccc(CCNC(=O)Cc2ccccc2CCO)c1`, the TGI with HS 578T breast, in the assay with HCT-116 colon, with UACC-257 melanoma, in the assay with 786-0 renal, in the assay on IGROV1 ovarian and in the assay with MCF7 breast was greater than 100 µM each time. Also, the TGI with HOP-62 NSCLC, with COLO 205 colon, with M14 melanoma, in the assay on BT-549 breast, in the assay with HOP-92 NSCLC and with TK-10 renal was greater than 100 µM each time. Further, the TGI in the assay with SK-MEL-5 melanoma was greater than 100 µM.
For `CC(=O)N(C(C)=O)c1ncc(-n2nc(-c3ccccc3)cc2-c2ccccc2)c(-c2ccccc2)n1`, the TGI in the assay on HS 578T breast, with HCT-116 colon, in the assay on UACC-257 melanoma, with 786-0 renal, with IGROV1 ovarian and with MCF7 breast was greater than 10 µM in each case. Besides, the TGI with HOP-62 NSCLC, with COLO 205 colon, in the assay with M14 melanoma, in the assay with BT-549 breast, in the assay with HOP-92 NSCLC and with TK-10 renal was greater than 10 µM in each case. Further, the TGI in the assay on SK-MEL-5 melanoma is greater than 10 µM.
Take `O=c1oc2ccccc2cc1-c1cc2ccccn2c1`: the TGI with HS 578T breast, in the assay with HCT-116 colon, in the assay on UACC-257 melanoma, in the assay on 786-0 renal, in the assay on IGROV1 ovarian and in the assay on MCF7 breast was greater than 100 µM in each case. The TGI with HOP-62 NSCLC, in the assay with COLO 205 colon, with M14 melanoma, in the assay with BT-549 breast, in the assay on HOP-92 NSCLC and with TK-10 renal was greater than 100 µM throughout. Also, the TGI with SK-MEL-5 melanoma was greater than 100 µM.
On to `CC(C)(C)OC(=O)N(CCCCN(CCCNC(=O)C(F)(F)F)C(=O)OC(C)(C)C)CCCNC(=O)C(F)(F)F`, for which the TGI with HS 578T breast, in the assay on HCT-116 colon, in the assay on UACC-257 melanoma, in the assay on 786-0 renal, with IGROV1 ovarian and with MCF7 breast was greater than 100 µM in each case. In addition, the TGI in the assay with HOP-62 NSCLC, in the assay with COLO 205 colon, in the assay with M14 melanoma, with BT-549 breast, in the assay on HOP-92 NSCLC and in the assay on TK-10 renal was greater than 100 µM in each case. The TGI in the assay with SK-MEL-5 melanoma was greater than 100 µM.

The values are drawn from PubChem BioAssay (NCI).
